Values joined by “and” are separate entries in the source; they are usually repeats but may differ in a detail not shown here. Identical values can stand only once. “Also recorded” adds a separate entry of the source.
Columns and labels:
[1] = biological target: CYP3A4 (Homo sapiens, UniProt P08684); test: Cytochrome P450 inhibition assay, human liver microsomes, CYP3A4; details: 10 uM
[2] = biological target: T1, CYP2D6 (Homo sapiens, UniProt P10635); test: Cytochrome P450 inhibition assay, human liver microsomes, CYP2D6; assay type: in vitro ADME; details: 10 uM
T1 construct: CONSTRUCT DETAILS: Microsomes; from tissue; host or cells: human liver microsomes

[3] = biological target: T2, CYP2C9 (Homo sapiens, UniProt P11712); test: Cytochrome P450 inhibition assay, human liver microsomes, CYP2C9; assay type: in vitro ADME; details: 10 uM
T2 construct: CONSTRUCT DETAILS: Microsomes; from tissue; host or cells: human liver microsomes
Description: • SUBSTRATE: Diclofenac

[4] = Body weight of tumor bearing mice in the B16-F10 syngeneic model; assay type: in vivo, C57BL/6 mice
Experimental: (§1) • Animal species and strain: C57BL/6 mice • History of treatment: Naive • Sex, age and weight: Female, 6-8 weeks • Breeder/supplier: Shanghai SLAC Laboratory Animal Co. Ltd • Adaptation: At least 7 days • Room: SPF Room • Room temperature: 20-26° C. • Room relative humidity: 40-70% • Light cycle: Fluorescent light for 12-hour light (08:00-20:00) and 12-hour dark • Animal hosting: 2-5 mice/cage each group • Food: Free access to food • Water: Free access to water (municipal tap water filtered by reverse osmosis or high-pressure sterilizer)
(§2) B16-F10 cells (3×10^5 in 100 μL of serum-free medium) were inoculated to each of C57BL/6 mice via s.c. under anesthesia by 3-4% isoflurane. Each group contains 15 mice.
(§3) When average tumor volume reached 35-60 mm^3, 15 mice were randomized into group 6. The day of inoculation was denoted as day 0.
Body weight was measured on Day 4, 5, 6, 8, 11, 13, 15 and 18 after inoculation. When required, body weight was measured daily.
(§4) Results were expressed as mean±S.E.M. Comparisons between two groups were made by Dunnett's multi-comparison test, p<0.05 were considered as significant.

[5] = system: B16-F10 syngeneic model; test: Subcutaneous B16-F10 syngeneic model, tumor growth; assay type: in vivo, C57BL/6 mice; details: 30 mg/kg q.d. * 3W i.p.
[6] = Aqueous solubility assay (shake-flask, LC/MS/MS); assay type: physicochemical; details: pH 10.63 buffer, 25° C., 24 hours; SIS3 hydrochloride salt, MO-00005 free base
[7] = system: B16-F10 syngeneic model; test: Subcutaneous B16-F10 syngeneic model, tumor growth; assay type: in vivo, C57BL/6 mice
Experimental: In order to evaluate the in vivo efficacy of SIS3 and novel compounds of the present invention, a study has been conducted in treatment of the subcutaneous B16-F10 syngeneic models.
as §1
B16-F10 cell was maintained at 37° C. under 5% CO2 in DMEM medium supplemented with 10% FBS and were subsequently cultured within 10 passages before inoculated into the mice.
as §2, §3
Tumor dimensions were measured on Day 4, 5, 6, 8, 11, 13, 15 and 18, after inoculation in 2 dimensions with calipers.
When required, tumor volume was measured daily. The tumor volume (V) was calculated as follows: V=(length×width^2)/2.
The individual relative tumor volume (RTV) was calculated as follows: RTV=Vt/V0, where Vt was the volume on each day, and V0 was the volume at the beginning of the treatment.
Tumor growth inhibition (TGI), TGI=(1−(Ti−T0)/(Ci−C0))×100%; Ti and Ci as the mean tumor volumes of the treatment and control groups on the measurement day; T0 and C0 as the mean tumor volumes of the treatment and control groups on day 0
as §4

[8] = 10 mg/kg q.d. * 3W i.p., Day 11
[9] = 10 mg/kg q.d. * 3W i.p., Day 13
[10] = 10 mg/kg q.d. * 3W i.p., Day 15
[11] = 10 mg/kg q.d. * 3W i.p., Day 18
[12] = 30 mg/kg q.d. * 3W i.p., Day 11
[13] = 30 mg/kg q.d. * 3W i.p., Day 13
[14] = 30 mg/kg q.d. * 3W i.p., Day 15
[15] = 30 mg/kg q.d. * 3W i.p., Day 18
[16] = single agent, i.p. QD*3 weeks, SIS3 10 and 30 mg/kg, MO-00005 10, 30 and 100 mg/kg, vs vehicle

Chain of CYP3A4 (P08684 whole entry): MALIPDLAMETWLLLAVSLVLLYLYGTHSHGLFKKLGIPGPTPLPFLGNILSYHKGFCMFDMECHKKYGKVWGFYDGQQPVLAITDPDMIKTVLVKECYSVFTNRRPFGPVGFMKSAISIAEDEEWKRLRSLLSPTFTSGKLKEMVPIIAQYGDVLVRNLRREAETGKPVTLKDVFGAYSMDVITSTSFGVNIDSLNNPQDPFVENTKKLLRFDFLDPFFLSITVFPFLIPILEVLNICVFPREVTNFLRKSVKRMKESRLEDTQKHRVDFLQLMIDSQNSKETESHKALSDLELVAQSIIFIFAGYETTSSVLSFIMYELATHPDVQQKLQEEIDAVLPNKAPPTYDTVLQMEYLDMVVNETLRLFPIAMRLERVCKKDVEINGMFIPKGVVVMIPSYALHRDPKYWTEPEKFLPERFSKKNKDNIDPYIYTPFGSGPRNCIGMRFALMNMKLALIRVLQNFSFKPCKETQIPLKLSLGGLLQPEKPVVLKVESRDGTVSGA
T2 sequence (P11712 whole entry): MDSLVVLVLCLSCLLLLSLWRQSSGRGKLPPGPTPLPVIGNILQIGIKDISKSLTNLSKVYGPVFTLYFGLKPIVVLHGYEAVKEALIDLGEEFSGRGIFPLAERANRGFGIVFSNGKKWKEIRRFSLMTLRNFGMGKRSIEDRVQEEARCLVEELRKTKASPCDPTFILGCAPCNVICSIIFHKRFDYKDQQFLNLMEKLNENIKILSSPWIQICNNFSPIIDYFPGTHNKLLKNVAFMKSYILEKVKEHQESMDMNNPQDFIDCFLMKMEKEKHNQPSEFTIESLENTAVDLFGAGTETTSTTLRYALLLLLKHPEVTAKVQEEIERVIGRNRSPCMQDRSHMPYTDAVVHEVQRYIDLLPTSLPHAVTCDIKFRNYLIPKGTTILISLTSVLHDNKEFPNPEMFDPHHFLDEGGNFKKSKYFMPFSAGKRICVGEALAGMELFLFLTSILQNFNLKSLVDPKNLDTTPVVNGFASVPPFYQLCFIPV
T1 sequence (P10635 whole entry): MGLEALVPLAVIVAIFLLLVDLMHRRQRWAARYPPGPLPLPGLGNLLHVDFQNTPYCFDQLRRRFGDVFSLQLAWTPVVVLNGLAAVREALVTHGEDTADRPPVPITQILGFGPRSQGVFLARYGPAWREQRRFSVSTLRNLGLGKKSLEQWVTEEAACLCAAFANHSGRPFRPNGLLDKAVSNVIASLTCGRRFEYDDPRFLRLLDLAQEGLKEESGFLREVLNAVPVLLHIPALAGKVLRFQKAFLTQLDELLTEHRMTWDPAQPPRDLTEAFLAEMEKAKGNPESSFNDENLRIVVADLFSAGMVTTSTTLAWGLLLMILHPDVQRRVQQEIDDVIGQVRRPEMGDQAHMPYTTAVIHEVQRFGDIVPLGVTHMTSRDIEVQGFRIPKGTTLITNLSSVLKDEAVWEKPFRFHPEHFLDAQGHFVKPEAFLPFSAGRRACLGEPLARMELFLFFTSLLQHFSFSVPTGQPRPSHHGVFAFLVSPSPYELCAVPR

COc1cc2c(cc1OC)CN(C(=O)/C=C/c1c(-c3ccccc3)n(C)c3ncccc13)CC2.Cl [SIS3, reference compound]
CYP3A inhibition (HLM, midazolam substrate) Inhibition (%) ([1]; midazolam substrate): 20.5499%
CYP3A inhibition (HLM, testosterone substrate) Inhibition (%) ([1]; testosterone substrate): 9.294%
CYP2D6 inhibition (HLM, dextromethorphan substrate) Inhibition (%) [2]: 19.1641%
CYP2C9 inhibition (HLM, diclofenac substrate) Inhibition (%) [3]: 79.7661%
Body weight (g) Mean ([4]; 10 mg/kg q.d. * 3W i.p., Day 1): 16.72 g
Body weight (g) Mean ([4]; 10 mg/kg q.d. * 3W i.p., Day 4): 16.64 g
Body weight (g) Mean ([4]; 10 mg/kg q.d. * 3W i.p., Day 5): 16.55 g
Body weight (g) Mean ([4]; 10 mg/kg q.d. * 3W i.p., Day 6): 16.50 g
Body weight (g) Mean ([4]; 10 mg/kg q.d. * 3W i.p., Day 8): 16.83 g
Body weight (g) Mean [4, 8]: 17.53 g
Body weight (g) Mean [4, 9]: 17.84 g
Body weight (g) Mean [4, 10]: 19.04 g
Body weight (g) Mean [4, 11]: 20.77 g
Body weight (g) Mean ([4]; 30 mg/kg q.d. * 3W i.p., Day 1): 16.72 g
Body weight (g) Mean ([4]; 30 mg/kg q.d. * 3W i.p., Day 4): 16.66 g
Body weight (g) Mean ([4]; 30 mg/kg q.d. * 3W i.p., Day 5): 16.55 g
Body weight (g) Mean ([4]; 30 mg/kg q.d. * 3W i.p., Day 6): 16.59 g
Body weight (g) Mean ([4]; 30 mg/kg q.d. * 3W i.p., Day 8): 16.69 g
Body weight (g) Mean [4, 12]: 17.30 g
Body weight (g) Mean [4, 13]: 17.53 g
Body weight (g) Mean [4, 14]: 18.45 g
Body weight (g) Mean [4, 15]: 20.70 g
Tumor growth inhibition (%) TGI ([5]; Day 13, calculated based on tumor volume of Day 8): 39%
Tumor growth inhibition (%) TGI ([5]; Day 15, calculated based on tumor volume of Day 8): 27%
Tumor growth inhibition (%) TGI ([5]; Day 18, calculated based on tumor volume of Day 8): 25%
Conc. Of Sample (ug/mL), aqueous solubility [6]: 2.4 µg/mL
Tumor Sizes (mm3) Mean ([7]; 10 mg/kg q.d. * 3W i.p., Day 4 (estimated value)): 0.87 mm3
Relative tumor volume Mean ([7]; 10 mg/kg q.d. * 3W i.p., Day 4, RTV=Vt/V0): 0.04
Tumor Sizes (mm3) Mean ([7]; 10 mg/kg q.d. * 3W i.p., Day 5 (estimated value)): 1.10 mm3 and 1.1 mm3
Relative tumor volume Mean ([7]; 10 mg/kg q.d. * 3W i.p., Day 5, RTV=Vt/V0): 0.05
Tumor Sizes (mm3) Mean ([7]; 10 mg/kg q.d. * 3W i.p., Day 6 (estimated value)): 3.36 mm3
Relative tumor volume Mean ([7]; 10 mg/kg q.d. * 3W i.p., Day 6, RTV=Vt/V0): 0.12
Tumor Sizes (mm3) Mean ([7]; 10 mg/kg q.d. * 3W i.p., Day 8): 43.65 mm3
Relative tumor volume Mean ([7]; 10 mg/kg q.d. * 3W i.p., Day 8, RTV=Vt/V0): 1.00
Tumor Sizes (mm3) Mean [7, 8]: 156.77 mm3
Relative tumor volume Mean ([7]; 10 mg/kg q.d. * 3W i.p., Day 11, RTV=Vt/V0): 4.07
Tumor growth inhibition (%) TGI ([7]; 10 mg/kg q.d. * 3W i.p., Day 11, calculated based on tumor volume of Day 8): 29%
Tumor Sizes (mm3) Mean [7, 9]: 443.17 mm3
Relative tumor volume Mean ([7]; 10 mg/kg q.d. * 3W i.p., Day 13, RTV=Vt/V0): 12.20
Tumor growth inhibition (%) TGI ([7]; 10 mg/kg q.d. * 3W i.p., Day 13, calculated based on tumor volume of Day 8): 26%
Tumor Sizes (mm3) Mean [7, 10]: 793.01 mm3
Relative tumor volume Mean ([7]; 10 mg/kg q.d. * 3W i.p., Day 15, RTV=Vt/V0): 22.19
Tumor growth inhibition (%) TGI ([7]; 10 mg/kg q.d. * 3W i.p., Day 15, calculated based on tumor volume of Day 8): 25%
Tumor Sizes (mm3) Mean [7, 11]: 2209.13 mm3
Relative tumor volume Mean ([7]; 10 mg/kg q.d. * 3W i.p., Day 18, RTV=Vt/V0): 62.21
Tumor growth inhibition (%) TGI ([7]; 10 mg/kg q.d. * 3W i.p., Day 18, calculated based on tumor volume of Day 8): 21%
Tumor Sizes (mm3) Mean ([7]; 30 mg/kg q.d. * 3W i.p., Day 4 (estimated value)): 0.28 mm3
Relative tumor volume Mean ([7]; 30 mg/kg q.d. * 3W i.p., Day 4, RTV=Vt/V0): 0.01
Tumor Sizes (mm3) Mean ([7]; 30 mg/kg q.d. * 3W i.p., Day 5 (estimated value)): 0.46 mm3
Relative tumor volume Mean ([7]; 30 mg/kg q.d. * 3W i.p., Day 5, RTV=Vt/V0): 0.01
Tumor Sizes (mm3) Mean ([7]; 30 mg/kg q.d. * 3W i.p., Day 6 (estimated value)): 3.44 mm3
Relative tumor volume Mean ([7]; 30 mg/kg q.d. * 3W i.p., Day 6, RTV=Vt/V0): 0.12
Tumor Sizes (mm3) Mean ([7]; 30 mg/kg q.d. * 3W i.p., Day 8): 49.16 mm3
Relative tumor volume Mean ([7]; 30 mg/kg q.d. * 3W i.p., Day 8, RTV=Vt/V0): 1.00
Tumor Sizes (mm3) Mean [7, 12]: 163.60 mm3 and 163.6 mm3
Relative tumor volume Mean ([7]; 30 mg/kg q.d. * 3W i.p., Day 11, RTV=Vt/V0): 3.98
Tumor growth inhibition (%) TGI ([7]; 30 mg/kg q.d. * 3W i.p., Day 11, calculated based on tumor volume of Day 8): 28%
Tumor Sizes (mm3) Mean [7, 13]: 379.84 mm3
Relative tumor volume Mean ([7]; 30 mg/kg q.d. * 3W i.p., Day 13, RTV=Vt/V0): 9.22
Tumor Sizes (mm3) Mean [7, 14]: 786.37 mm3
Relative tumor volume Mean ([7]; 30 mg/kg q.d. * 3W i.p., Day 15, RTV=Vt/V0): 23.71
Tumor Sizes (mm3) Mean [7, 15]: 2131.42 mm3
Relative tumor volume Mean ([7]; 30 mg/kg q.d. * 3W i.p., Day 18, RTV=Vt/V0): 70.14
anti-tumor activity against the B16-F10 syngeneic model (in words) [7, 16]: anti-tumor response; also recorded: significant anti-tumor activity
efficacy on tumor weight (in words) [7, 16]: significant efficacy on tumor weight
